Literature values in article PMC9863691, “A Novel Ferroptosis Inhibitor UAMC-3203, a Potential Treatment for Corneal Epithelial Wound” (Pharmaceutics, 2022).
pIC50: −log10 of the molar value.

Experiments:
[1] = human, microsomes; cited from earlier work
ferroptosis = test system: ferroptosis; design: method as in PMID 30354101; settings: read-out: in vitro potency IC50 (ferroptosis); cited from earlier work
[2] = test system: human corneal epithelial cell line; design: method as in PMID 34535730; settings: after exposure to cigarette smoke and heated tobacco products; cited from earlier work

SMILES: CCOC(=O)c1ccc(NC2CCCCC2)c(N)c1 [Fer-1, Ferrostatin-1, reference compound]
- t1/2 in human microsome [1]: 6 min
- pIC50 (ferroptosis): 7.48
- effect on cell death and cell viability [2]: reduced cell death and improved cell viability
